These results are taken from PubChem BioAssay (NCI).

Among the test systems are A498 renal; HCT-15 colon; HT29 colon; IGROV1 ovarian; OVCAR-3 ovarian; OVCAR-4 ovarian; OVCAR-5 ovarian; SK-MEL-28 melanoma; SNB-19 CNS; TK-10 renal.
Experiment in all cases: NCI anticancer screen, dose series, 48 h

Molecules are shown by their SMILES.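 How tested: cells in 96-well plates exposed to compound for 48 hours at five concentrations. At the GI50, growth is halved. Definition used: TGI = concentration required for complete inhibition of growth.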 Where only a bound is given, the exact number is not on record here.

For the compound `CN1C(=O)C(c2c[nH]c3ccccc23)=C(c2c(-c3c[nH]c4ccccc34)[nH]c3ccccc23)C1=O`, the GI50 in the test with A498 renal was 1.89 µM; in the test with HCT-15 colon it was 3.24 µM; in the test with HT29 colon it was 2.73 µM; in the test with IGROV1 ovarian, 9.53 µM; with OVCAR-3 ovarian, 0.92 µM; in the test with OVCAR-4 ovarian, 15.5 µM. Also, the GI50 with OVCAR-5 ovarian was 2.85 µM; in the test with SK-MEL-28 melanoma it was 10.4 µM; with SNB-19 CNS, 3.95 µM; in the test with TK-10 renal it was 1.66 µM. Also, the TGI in the test with A498 renal is 8.12 µM; in the test on HCT-15 colon, 12.3 µM; in the test on HT29 colon it was 8.36 µM; with IGROV1 ovarian, > 100 µM; in the test on OVCAR-3 ovarian it was 2.99 µM; in the test on OVCAR-4 ovarian, > 100 µM. For the same compound, the TGI amounted to 11.3 µM in the test with OVCAR-5 ovarian, 31.4 µM with SK-MEL-28 melanoma, 18.8 µM in the test with SNB-19 CNS and 4.85 µM with TK-10 renal.
For the compound `NC1=C(Cl)C(=O)c2ccccc2C1=O`, the TGI in the test with A498 renal worked out at 35.7 µM; in the test with HCT-15 colon, 12.2 µM; with HT29 colon it was 30.4 µM; with IGROV1 ovarian it was 26 µM; with OVCAR-3 ovarian, 7.29 µM; in the test on OVCAR-4 ovarian, 15.9 µM. In addition, the TGI amounted to 23.7 µM with OVCAR-5 ovarian, 11.3 µM in the test on SK-MEL-28 melanoma, 24.2 µM in the test on SNB-19 CNS and 49 µM in the test on TK-10 renal.
Regarding `COc1ccc(/C=C\c2cc(OC)c(OC)c(OC)c2)cc1OCC(=O)Nc1nc2ccc(OC(F)(F)F)cc2s1`, the GI50 in the test on A498 renal was 3.61 µM; in the test with HCT-15 colon it was 3.23 µM; in the test on HT29 colon it was > 100 µM; in the test on IGROV1 ovarian, 5.64 µM; with OVCAR-3 ovarian it was 3.37 µM; in the test on OVCAR-4 ovarian, 5.34 µM. Further, the GI50 in the test with OVCAR-5 ovarian is 31.2 µM; with SK-MEL-28 melanoma it was 4.57 µM; with SNB-19 CNS it was 7.08 µM; in the test on TK-10 renal, 18.6 µM. Besides, the TGI in the test on A498 renal is > 100 µM; in the test on HCT-15 colon it was > 100 µM; in the test with HT29 colon, > 100 µM; with IGROV1 ovarian, > 100 µM; with OVCAR-3 ovarian, 11.3 µM; in the test on OVCAR-4 ovarian it was > 100 µM. Further, the TGI with OVCAR-5 ovarian, with SK-MEL-28 melanoma, in the test on SNB-19 CNS and in the test with TK-10 renal was > 100 µM each time.
Take `CC1(C)N[P+]2(Nc3ccccc3O2)OC1=O` (stereo not given): the TGI in the test on A498 renal, in the test on HCT-15 colon, with HT29 colon, with IGROV1 ovarian, in the test on OVCAR-3 ovarian and in the test on OVCAR-4 ovarian was > 100 µM each time. Moreover, the TGI in the test on OVCAR-5 ovarian, with SK-MEL-28 melanoma, in the test on SNB-19 CNS and with TK-10 renal was > 100 µM throughout.
As for `COC(=O)[C@]12CC=C3O[C@@H]4OC5(CCCCC5)O[C@@H]4[C@H]3C1C(=O)C=CC2=O` (stereo not given in full), the TGI in the test with A498 renal was determined as 33.6 µM; in the test on HCT-15 colon, 34.2 µM; with HT29 colon, 34.6 µM; with IGROV1 ovarian it was 34.5 µM; in the test with OVCAR-3 ovarian, 28.7 µM; in the test with OVCAR-4 ovarian, 31.4 µM. Further, the TGI in the test on OVCAR-5 ovarian amounted to 38.8 µM; in the test on SK-MEL-28 melanoma, 34.2 µM; in the test with SNB-19 CNS, 66.2 µM; with TK-10 renal it was 31.4 µM.
`O=C1OCC2=C1C(c1cccc(C(F)(F)F)c1)c1cc3c(cc1N2CCO)CCC3` (stereo not given): the GI50 in the test with A498 renal is 0.0804 µM; in the test with HCT-15 colon, 0.15 µM; in the test on HT29 colon, 0.167 µM; in the test with IGROV1 ovarian, 0.312 µM; in the test on OVCAR-3 ovarian it was 0.161 µM; with OVCAR-4 ovarian it was 1.05 µM. Moreover, the GI50 is 0.265 µM in the test with OVCAR-5 ovarian, 1.41 µM in the test on SK-MEL-28 melanoma, 0.215 µM in the test on SNB-19 CNS and 0.359 µM in the test on TK-10 renal. Further, the TGI in the test on A498 renal stood at 0.397 µM; in the test on HCT-15 colon it was 6.02 µM; in the test on HT29 colon, 5.27 µM; in the test with IGROV1 ovarian, 8.25 µM; in the test with OVCAR-3 ovarian it was 2.21 µM; with OVCAR-4 ovarian it was 11.2 µM. Further, the TGI in the test with OVCAR-5 ovarian was determined as 8.97 µM; in the test with SK-MEL-28 melanoma it was 12.1 µM; with SNB-19 CNS, 8.8 µM; with TK-10 renal, 10.9 µM.
As to `CCN1CCC(CC(=O)Nc2n[nH]c3nc(-c4cccs4)c(Br)cc23)CC1`, the GI50 is 7.87 µM with A498 renal; 6.89 µM in the test with HCT-15 colon; 4.47 µM in the test on HT29 colon; 12.8 µM in the test on IGROV1 ovarian; 10.4 µM in the test on OVCAR-3 ovarian; 11.5 µM in the test on OVCAR-4 ovarian. Also, the GI50 with OVCAR-5 ovarian was 15.9 µM; in the test with SK-MEL-28 melanoma, 5.31 µM; in the test on SNB-19 CNS it was 17.4 µM; with TK-10 renal, 5.81 µM. The TGI is > 25 µM with A498 renal; > 20.6 µM with HCT-15 colon; 11.1 µM in the test with HT29 colon; > 25 µM with IGROV1 ovarian; > 25 µM in the test on OVCAR-3 ovarian; > 25 µM in the test on OVCAR-4 ovarian. In addition, the TGI was > 25 µM in the test with OVCAR-5 ovarian, 9.85 µM with SK-MEL-28 melanoma, > 25 µM in the test with SNB-19 CNS and > 21.4 µM in the test on TK-10 renal.
`C=C(C)[C@@H]1CC[C@]2(C(=O)NCCNCCNCCN)CC[C@]3(C)[C@H](CC[C@@H]4[C@@]5(C)CCC(=O)C(C)(C)[C@@H]5CC[C@]43C)[C@@H]12`: the GI50 with A498 renal was 42.6 µM; in the test on HCT-15 colon it was 7.65 µM; in the test with HT29 colon, 7.17 µM; in the test on IGROV1 ovarian, 6.42 µM; with OVCAR-3 ovarian it was 7.65 µM; with OVCAR-4 ovarian, 7.39 µM. The GI50 in the test on OVCAR-5 ovarian is 8.78 µM; in the test with SK-MEL-28 melanoma, 8.5 µM; with SNB-19 CNS, 8.5 µM; in the test with TK-10 renal it was 10.1 µM. Further, the TGI in the test on A498 renal was > 50 µM; with HCT-15 colon, 15.7 µM; in the test with HT29 colon it was 14.6 µM; in the test on IGROV1 ovarian it was 14.4 µM; with OVCAR-3 ovarian it was 15 µM; with OVCAR-4 ovarian, 15.3 µM. Besides, the TGI came to 18.4 µM with OVCAR-5 ovarian, 17 µM in the test with SK-MEL-28 melanoma, 18.1 µM with SNB-19 CNS and 19.7 µM with TK-10 renal.
